Data set [1] is described as follows: Cytotoxicity against mouse RAW264.7 cells assessed as cell viability at 5 uM measured after 24 hrs incubation by MTT assay relative to control. Type of data set: toxicity, cell-based. The following applies: read-out: Activity. Background: Tetrazolium assays rely on reduction of a dye to a coloured formazan, in cell work by metabolically active cells.
For data set [2], the system named is RAW264.7. Briefly: Anti-inflammatory activity against mouse RAW264.7 cells assessed as inhibition of LPS-induced NO production at 5 uM measured after 24 hrs incubation by Griess assay relative to control. Type of data set: functional. A general note: The Griess reaction detects nitrite, a stable product of nitric oxide.
For data set [3], the system named is RAW264.7. Briefly: Anti-inflammatory activity against mouse RAW264.7 cells assessed as inhibition of LPS-induced NO production measured after 24 hrs incubation by Griess assay. To be noted: RAW264.7, 24 h. Type of data set: functional, cell-based.
For data set [4], the system named is RAW264.7. Briefly: Anti-inflammatory activity against mouse RAW264.7 cells assessed as inhibition of LPS-induced COX2 level pretreated for 1 hr followed by induced with LPS measured after 24 hrs by ELISA. Type of data set: functional, cell-based. The following applies: dose 2.5-20 µM, time 25.0 hrs.
In data set [5] the test system is RAW264.7. Briefly: Anti-inflammatory activity against mouse RAW264.7 cells assessed as inhibition of LPS-induced TNFalpha level pretreated for 1 hr followed by induced with LPS measured after 24 hrs by ELISA. The following applies: dose 2.5-20 µM, time 25.0 hrs. Type of data set: functional, cell-based. In general terms: In an ELISA, binding on a coated surface is turned into a signal by an enzyme label.

Usually inhibition stands for the drop in the measured response relative to a control, in per cent. As for `CCc1ccc(C2CC([C@H]3CC[C@H]4[C@@H]5CC=C6C[C@@H](O)CC[C@]6(C)[C@H]5CC[C@]34C)=NN2C2=NC(=O)CS2)cc1` (stereo not given in full), in data set [1], the viability at 24 h, 5 µM came to 82.8%. The inhibition at 5 µM in the data set on RAW264.7 [2] was 39.9%.

Regarding `COc1ccccc1C1CC([C@H]2CC[C@H]3[C@@H]4CC=C5C[C@@H](O)CC[C@]5(C)[C@H]4CC[C@]23C)=NN1C1=NC(=O)CS1` (stereo not given in full), the viability at 24 h, 5 µM in data set [1] was 70%. The inhibition at 5 µM with RAW264.7 [2] was 55.5%.

A word on the IC50: it is the point on the concentration scale where inhibition reaches its midpoint. In the case of `C[C@]12CC[C@H]3[C@@H](CC=C4C[C@@H](O)CC[C@@]43C)[C@@H]1CC[C@@H]2C1=NN(C2=NC(=O)CS2)C(c2ccc(F)cc2)C1` (stereo not given in full), in the data set with RAW264.7 [3], the IC50 is 4.24 µM. In addition, in data set [1], the viability at 24 h, 5 µM was 90.9%. The inhibition at 5 µM in the data set on RAW264.7 [2] worked out at 44.7%.

As for `C[C@]12CC[C@H]3[C@@H](CC=C4C[C@@H](O)CC[C@@]43C)[C@@H]1CC[C@@H]2C1=NN(C2=NC(=O)CS2)C(c2ccc(S(C)(=O)=O)cc2)C1` (stereo not given in full), the viability at 24 h, 5 µM in data set [1] is 74.5%. Further, the inhibition at 5 µM in the data set on RAW264.7 [2] worked out at 47.3%.

Take `C[C@]12CC[C@H]3[C@@H](CC=C4C[C@@H](O)CC[C@@]43C)[C@@H]1CC[C@@H]2C1=NN(C2=NC(=O)CS2)C(c2cccc(Cl)c2)C1` (stereo not given in full): in the data set with RAW264.7 [3], the IC50 was 5.14 µM. In data set [1], the viability at 24 h, 5 µM was found to be 73.3%. The inhibition at 5 µM with RAW264.7 [2] was 50.7%.

As for `C[C@@H]1C[C@H]2[C@@H]3CCC4=CC(=O)C=C[C@]4(C)[C@@]3(F)[C@@H](O)C[C@]2(C)[C@@]1(O)C(=O)CO` [DEXAMETHASONE], the IC50 with RAW264.7 [3] turned out to be 3.8 µM. Moreover, the inhibition result in the data set on RAW264.7 [4] and in the data set with RAW264.7 [5] was “Dose-Dependent Effect” each time. Moreover, in data set [1], the viability at 24 h, 5 µM is 92%. Further, in the data set on RAW264.7 [2], the inhibition at 5 µM amounted to 42.3%.

For `COc1ccc(C2CC([C@H]3CC[C@H]4[C@@H]5CC=C6C[C@@H](O)CC[C@]6(C)[C@H]5CC[C@]34C)=NN2C2=NC(=O)CS2)cc1` (stereo not given in full), the viability at 24 h, 5 µM in data set [1] came to 95.9%. Also, the inhibition at 5 µM in the data set with RAW264.7 [2] is 30.7%.

In the case of `C[C@]12CC[C@H]3[C@@H](CC=C4C[C@@H](O)CC[C@@]43C)[C@@H]1CC[C@@H]2C1=NN(C2=NC(=O)CS2)C(c2ccccc2Cl)C1` (stereo not given in full), the IC50 with RAW264.7 [3] turned out to be 12.2 µM. Moreover, in data set [1], the viability at 24 h, 5 µM is 81.1%. Also, the inhibition at 5 µM in the data set with RAW264.7 [2] amounted to 52.6%.

With `C[C@]12CC[C@H]3[C@@H](CC=C4C[C@@H](O)CC[C@@]43C)[C@@H]1CC[C@@H]2C1=NN(C2=NC(=O)CS2)C(c2ccc(C#N)cc2)C1` (stereo not given in full), the IC50 in the data set on RAW264.7 [3] is 6.89 µM. Further, the viability at 24 h, 5 µM in data set [1] turned out to be 93.4%. Also, in the data set with RAW264.7 [2], the inhibition at 5 µM turned out to be 48.8%.

As to `Cc1cccc(C2CC([C@H]3CC[C@H]4[C@@H]5CC=C6C[C@@H](O)CC[C@]6(C)[C@H]5CC[C@]34C)=NN2C2=NC(=O)CS2)c1` (stereo not given in full), the IC50 in the data set on RAW264.7 [3] worked out at 2.9 µM. In addition, in data set [1], the viability at 24 h, 5 µM amounted to 75.9%. For the same molecule, the inhibition at 5 µM in the data set with RAW264.7 [2] was 51.9%.

With `Cc1ccc(C2CC([C@H]3CC[C@H]4[C@@H]5CC=C6C[C@@H](O)CC[C@]6(C)[C@H]5CC[C@]34C)=NN2C2=NC(=O)CS2)cc1` (stereo not given in full), in data set [1], the viability at 24 h, 5 µM worked out at 88.5%. Further, in the data set with RAW264.7 [2], the inhibition at 5 µM came out at 35.4%.

Regarding `C[C@]12CC[C@H]3[C@@H](CC=C4C[C@@H](O)CC[C@@]43C)[C@@H]1CC[C@@H]2C1=NN(C2=NC(=O)CS2)C(c2ccc(Br)cc2)C1` (stereo not given in full), the IC50 in the data set on RAW264.7 [3] was determined as 2.27 µM. Also, the inhibition result in the data set on RAW264.7 [4] and in the data set on RAW264.7 [5] was “Dose-Dependent Effect” throughout. Also, in data set [1], the viability at 24 h, 5 µM was found to be 85.5%. Also, in the data set on RAW264.7 [2], the inhibition at 5 µM is 45.4%.

Turning to `CCOc1ccc(C2CC([C@H]3CC[C@H]4[C@@H]5CC=C6C[C@@H](O)CC[C@]6(C)[C@H]5CC[C@]34C)=NN2C2=NC(=O)CS2)cc1` (stereo not given in full), the IC50 in the data set with RAW264.7 [3] amounted to 2.36 µM. Besides, the inhibition entry with RAW264.7 [4] and in the data set on RAW264.7 [5] was “Dose-Dependent Effect” in each case. The viability at 24 h, 5 µM in data set [1] is 87.7%. Besides, in the data set with RAW264.7 [2], the inhibition at 5 µM was 47.8%.

Regarding `C[C@]12CC[C@H]3[C@@H](CC=C4C[C@@H](O)CC[C@@]43C)[C@@H]1CC[C@@H]2C1=NN(C2=NC(=O)CS2)C(c2ccccc2OCc2ccccc2)C1` (stereo not given in full), the viability at 24 h, 5 µM in data set [1] amounted to 69%. Also, the inhibition at 5 µM in the data set on RAW264.7 [2] was found to be 48.2%.

As to `C[C@]12CC[C@H]3[C@@H](CC=C4C[C@@H](O)CC[C@@]43C)[C@@H]1CC[C@@H]2C1=NN(C2=NC(=O)CS2)C(c2ccccc2F)C1` (stereo not given in full), the IC50 with RAW264.7 [3] turned out to be 5.41 µM. In addition, the viability at 24 h, 5 µM in data set [1] turned out to be 86.4%. Further, in the data set with RAW264.7 [2], the inhibition at 5 µM came to 46.8%.

For the molecule `CSc1ccc(C2CC([C@H]3CC[C@H]4[C@@H]5CC=C6C[C@@H](O)CC[C@]6(C)[C@H]5CC[C@]34C)=NN2C2=NC(=O)CS2)cc1` (stereo not given in full), the viability at 24 h, 5 µM in data set [1] worked out at 82.2%. Further, the inhibition at 5 µM in the data set on RAW264.7 [2] was determined as 45.2%.

As to `C[C@]12CC[C@H]3[C@@H](CC=C4C[C@@H](O)CC[C@@]43C)[C@@H]1CC[C@@H]2C1=NN(C2=NC(=O)CS2)C(c2ccc(Cl)cc2)C1` (stereo not given in full), in the data set on RAW264.7 [3], the IC50 turned out to be 4.07 µM. Further, in data set [1], the viability at 24 h, 5 µM is 85.1%. The inhibition at 5 µM with RAW264.7 [2] came to 46.3%.

These data come from ChEMBL document CHEMBL5500377, “Design, synthesis and molecular modeling of novel D-ring substituted steroidal 4,5-dihydropyrazole thiazolinone derivatives as anti-inflammatory agents by inhibition of COX-2/iNOS production and down-regulation of NF-κB/MAPKs in LPS-induced RAW264.7 macrophage cells” (Eur J Med Chem, 2024).
